Literature values as cited in patent US20150140121A1, “Compositions and Methods for Tight Junction Modulation” (Lankenau Institute for Medical Research, priority 2012, published 2015).

Experiments:
[1] = system: colonc epithelial (CACO-2 and HT-29/B6) cell layers; conditions: berberine 50 micromolar, Li et al. 2010, Amasheh et al. 2010; cited from earlier work
claudin 2 = conditions: berberine; CACO-2 and HT-29/B6 cell layers; cited from earlier work
claudin-4 = conditions: berberine; CACO-2 and HT-29/B6 cell layers; cited from earlier work
claudin 3 = conditions: berberine; CACO-2 and HT-29/B6 cell layers; cited from earlier work
claudin-1 = conditions: berberine; CACO-2 and HT-29/B6 cell layers; cited from earlier work
claudin 7 = conditions: berberine; CACO-2 and HT-29/B6 cell layers; cited from earlier work
occludin = conditions: CACO-2 and HT-29/B6 cell layers, cited from earlier work
claudin 5 = conditions: berberine; CACO-2 and HT-29/B6 cell layers; cited from earlier work

COc1ccc2cc3[n+](cc2c1OC)CCc1cc2c(cc1-3)OCO2 [berberine]
no effect: amount of claudin 4 (claudin-4) | amount of claudin 3 (claudin 3) | amount of claudin 7 (claudin 7) | amount of occludin (occludin; berberine) | amount of claudin 5 (claudin 5)
prevents: TJ leakiness that ensues from proinflammatory cytokine exposure [1] | occludin redistribution that ensues from proinflammatory cytokine exposure (occludin; berberine 50 micromolar)
Strong effects: cellular amount of claudin 2 (claudin 2) | cellular amount of claudin 1 (claudin-1)
